Reference: the NIST ThermoML archive (doi:10.1021/je060184i)
± gives the expanded uncertainty stated by the source.

Experiments:
[1] = Liquid, Closed cell (Static) method
[2] = excess molar enthalpy (molar enthalpy of mixing); xn = mol fraction of the nth substance listed; conditions: 298.15 K, 101 kPa, Liquid, Flow calorimetry

C1CCCCC1 [cyclohexane]
[1]
Conditions	vapor or sublimation pressure [kPa]
263.15 K	2.082 ± 0.023
273.15 K	3.73 ± 0.03
283.15 K	6.357 ± 0.043
293.15 K	10.37 ± 0.064
298.15 K	13.04 ± 0.078
303.15 K	16.26 ± 0.096
313.15 K	24.65 ± 0.14
323.15 K	36.24 ± 0.2
333.15 K	51.85 ± 0.28
343.15 K	72.39 ± 0.39
353.15 K	98.85 ± 0.53
363.15 K	132.33 ± 0.71

CCCCCCC [heptane]
[1]
Conditions	vapor or sublimation pressure [kPa]
273.15 K	1.531 ± 0.02
283.15 K	2.76 ± 0.025
293.15 K	4.736 ± 0.034
298.15 K	6.104 ± 0.04
303.15 K	7.787 ± 0.049
313.15 K	12.32 ± 0.07
323.15 K	18.85 ± 0.1
333.15 K	27.99 ± 0.15
343.15 K	40.43 ± 0.21
353.15 K	56.99 ± 0.29
363.15 K	78.59 ± 0.4

C=CCCCC [hex-1-ene]
[1]
Conditions	vapor or sublimation pressure [kPa]
273.15 K	7.687 ± 0.051
283.15 K	12.64 ± 0.076
293.15 K	19.98 ± 0.12
298.15 K	24.77 ± 0.14
303.15 K	30.46 ± 0.17
313.15 K	44.98 ± 0.25
323.15 K	64.6 ± 0.35
333.15 K	90.44 ± 0.49
343.15 K	123.79 ± 0.67
353.15 K	165.99 ± 0.89
363.15 K	218.5 ± 1.2

C=CCCCC [hex-1-ene] + CCCOC(C)=O
[2]
Conditions	excess molar enthalpy [kcal/mol]
x2 = 0.0943	0.062 ± 0.00239
x2 = 0.2122	0.114 ± 0.00263
x2 = 0.3238	0.141 ± 0.00263
x2 = 0.418	0.151 ± 0.00263
x2 = 0.4609	0.152 ± 0.00263
x2 = 0.4822	0.152 ± 0.00263
x2 = 0.5032	0.151 ± 0.00263
x2 = 0.5241	0.15 ± 0.00263
x2 = 0.5449	0.148 ± 0.00263
x2 = 0.6178	0.139 ± 0.00263
x2 = 0.7186	0.117 ± 0.00263
x2 = 0.8117	0.0874 ± 0.00263
x2 = 0.9076	0.0475 ± 0.00239

CCCOC(C)=O [propyl ethanoate]
[1]
Conditions	vapor or sublimation pressure [kPa]
263.15 K	0.4981 ± 0.01
273.15 K	1.006 ± 0.018
283.15 K	1.909 ± 0.022
293.15 K	3.43 ± 0.029
298.15 K	4.514 ± 0.034
303.15 K	5.875 ± 0.041
313.15 K	9.645 ± 0.06
323.15 K	15.25 ± 0.09
333.15 K	23.33 ± 0.13
343.15 K	34.64 ± 0.19
353.15 K	50.07 ± 0.28
363.15 K	70.64 ± 0.38

CCCOC(C)=O [propyl ethanoate] + C1CCCCC1
[2]
Conditions	excess molar enthalpy [kcal/mol]
x1 = 0.1031	0.127 ± 0.00263
x1 = 0.1888	0.195 ± 0.00287
x1 = 0.2926	0.244 ± 0.00311
x1 = 0.3829	0.265 ± 0.00311
x1 = 0.4249	0.268 ± 0.00311
x1 = 0.4667	0.269 ± 0.00311
x1 = 0.4876	0.267 ± 0.00311
x1 = 0.5084	0.265 ± 0.00311
x1 = 0.5827	0.252 ± 0.00311
x1 = 0.6881	0.215 ± 0.00287
x1 = 0.7883	0.163 ± 0.00263
x1 = 0.8945	0.0901 ± 0.00263

CCCOC(C)=O [propyl ethanoate] + CCCCCCC
[2]
Conditions	excess molar enthalpy [kcal/mol]
x1 = 0.1087	0.121 ± 0.00263
x1 = 0.1348	0.143 ± 0.00263
x1 = 0.2399	0.214 ± 0.00287
x1 = 0.3594	0.259 ± 0.00311
x1 = 0.457	0.273 ± 0.00311
x1 = 0.5004	0.273 ± 0.00311
x1 = 0.5217	0.272 ± 0.00311
x1 = 0.5427	0.27 ± 0.00311
x1 = 0.5634	0.266 ± 0.00311
x1 = 0.5838	0.262 ± 0.00311
x1 = 0.6544	0.244 ± 0.00311
x1 = 0.7495	0.202 ± 0.00287
x1 = 0.8346	0.15 ± 0.00263
x1 = 0.92	0.0807 ± 0.00263
x1 = 0.9526	0.0495 ± 0.00239
